Patent US20150024001A1, “MOLECULAR MIMIC MUCOSAL AIDS VACCINE” (priority 2011, published 2015)

Columns and labels:
gp140 = conditions: subcutaneous booster in monkeys first immunized with Hub-TGDK-UPA-CpGODN-gp140-Fetuin, after anti-gp140 titer had decreased (about one year and a half)
Text: The resulting modified gene of SIVmac239 Env was transferred into simian Vero cells and a monomer and a trimer of SIVmac239 Env gp140 were constructed.

UAE-1 = conditions: cited from earlier work

Fetuin
production of anti-gp140 antibodies after booster (gp140): production of anti-gp140 antibodies was confirmed

NCCNC(=O)[C@H](CCCCNC(=O)[C@H](CCCCNC(=O)c1cc(O)c(O)c(O)c1)NC(=O)c1cc(O)c(O)c(O)c1)NC(=O)[C@H](CCCCNC(=O)c1cc(O)c(O)c(O)c1)NC(=O)c1cc(O)c(O)c(O)c1 [TGDK, N^2,N^6-bis[N^2,N^6-bis(3,4,5-trihydroxybenzoyl)-L-lysyl]-N-(2-aminoethyl)-L-lysine amide]
mode of inhibition of UAE-1 (UAE-1): competitive inhibitor
